Experimental findings from patent US6825201B2 (priority 2001, dated 2004) are described below.

A value given as a limit tells only on which side of the number the result lay.

The first assay concerns HIV-1 single-round infectious reporter virus. Description: microbe, parasite or virus in culture. The format is cell-based. The note with it: HeLa CD4 CCR5 cells, single-round HIV-1 reporter virus, MOI 0.01, luciferase read 72 hours after infection; read-out: EC50 Range. Here is the method:
Virus infection—Human epithelial cell line, HeLa, expressing the HIV-1 receptors CD4 and CCR5 was propagated in Dulbecco's Modified Eagle Medium (Life Technologies, Gaithersburg, Md.) containing 10% fetal Bovine serum (FBS, Sigma, St. Louis, Mo.) and supplemented with 0.2 mg/ml Geneticin (Life Technologies, Gaithersburg, Md.) and 0.4 mg/ml Zeocin (Invitrogen, Carlsbad, Calif.).
Transfections were performed using lipofectAMINE PLUS reagent as described by the manufacturer (Life Technologies, Gaithersburg, Md.).
1. Compound was added to HeLa CD4 CCR5 cells plated in 96 well plates at a cell density of 5×10^4 cells per well in 100 μl Dulbecco's Modified Eagle Medium containing 10% fetal Bovine serum at a concentration of <20 μM.
2. 100 μl of single-round infectious reporter virus in Dulbecco's Modified Eagle Medium was then added to the plated cells and compound at an approximate multiplicity of infection (MOI) of 0.01, resulting in a final volume of 200 μl per well and a final compound concentration of <10 μM.
3. Samples were harvested 72 hours after infection.
4. Viral infection was monitored by measuring luciferase expression from viral DNA in the infected cells using a luciferase reporter gene assay kit (Roche Molecular Biochemicals, Indianapolis, Ind.). Infected cell supernatants were removed and 50 μl of Dulbecco's Modified Eagle Medium (without phenol red) and 50 μl of luciferase assay reagent reconstituted as described by the manufacturer (Roche Molecular Biochemicals, Indianapolis, Ind.) was added per well. Luciferase activity was then quantified by measuring luminescence using a Wallac microbeta scintillation counter.
5. An EC50 provides a method for comparing the antiviral potency of the compounds of this invention. The effective concentration for fifty percent inhibition (EC50) was calculated with the Microsoft Excel Xlfit curve fitting software.
Regarding “N-(benzoyl)-N′-[(4-fluorol-indolin-3-yl)-acetyl]-piperazine [Example 21]”, the concentration giving a half-maximal response (EC50) (usually the concentration needed to bring the measured effect to its halfway point) was under 1000 nM.

Staying with this assay, now noted: Human immunodeficiency virus 1, HeLa-CD4/CCR5, 72 h, read-out: EC50 Range.
As to `O=C(c1ccccc1)N1CCN(C(=O)c2c[nH]c3cccc(F)c23)CC1` [Example 29], the EC50 was under 1000 nM.

Consider `COc1ccc(C#N)c2[nH]cc(C(=O)N3CCN(C(=O)c4ccccc4)C[C@H]3C)c12` [Example 28], for which the half-maximal effective concentration (EC50) was over 500 nM.

As to `O=C(C(=O)N1CCN(C(=O)c2ccccc2)CC1)c1cc2ccccc2s1` [Example 19, 1-(benzoyl)-4-[(benzothiophen-2-yl)-2-oxoacetyl]piperazine], the EC50 was 1000 to 5000 nM.

Consider `CC1CN(C(=O)c2ccccc2)CCN1C(=O)C(=O)c1cc2cc(F)ccc2[nH]1` (centres unmarked) [Example 8], for which the concentration for a half-maximal effect (EC50) is under 1000 nM.

On to `COc1cccc2occ(C(=O)C(=O)N3CCN(C(=O)c4ccccc4)CC3)c12` [Example 6], for which the EC50 is over 500 nM.

Take `O=C(C(=O)N1CCN(C(=O)c2ccccc2)CC1)c1cc2ccccc2[nH]1` [Example 5, 1-(benzoyl)-4-[(indol-2-yl)-2-oxoacetyl]piperazine]: the EC50 was under 1000 nM.

Take `CCCCNc1c(C(=O)C(=O)N2CCN(C(=O)c3ccccc3)CC2)cnc2c1cnn2CC` [Example 14]: the EC50 is over 5000 nM.

With `CC1CN(C(=O)c2ccccc2)CCN1C(=O)C(=O)c1cc2cc(Cl)ccc2[nH]1` (centres unmarked) [Example 9], the EC50 is under 1000 nM.

Consider `O=C(C(=O)N1CCN(C(=O)c2ccccc2)CC1)c1cccc2[nH]ccc12` [Example 22, 1-(4-benzoyl-piperazin-1-yl)-2-(1H-indol-4-yl)-ethane-1,2-dione], for which the EC50 is under 1000 nM.

In the case of `CCCCNc1c(C(=O)C(=O)N2CCN(C(=O)c3ccccc3)CC2C)cnc2c1cnn2CC` (centres unmarked) [Example 13], the EC50 was under 1000 nM.

For the molecule `CNC(=O)c1ccc(F)c2c(CC(=O)N3CCN(C(=O)c4ccccc4)CC3)c[nH]c12` [Example 31, 3-[2-(4-Benzoyl-piperazin-1-yl)-2-oxo-ethyl]-4-fluoro-1H-indole-7-carboxylic acid methylamide], the EC50 is 1000 to 5000 nM.

Regarding `COc1cccc2occ(C(=O)C(C#N)N3CCN(C(=O)c4ccccc4)CC3)c12` (centres unmarked) [Example 3], the EC50 was under 1000 nM.

For the molecule `CNC(=O)c1ccc(F)c2c(C(O)C(=O)N3CCN(C(=O)c4ccccc4)CC3)c[nH]c12` (centres unmarked) [Example 32, 3-[2-(4-Benzoyl-piperazin-1-yl)-1-hydroxy-2-oxo-ethyl]-4-fluoro-1H-indole-7-carboxylic acid methylamide], the EC50 is under 1000 nM.

As for `COc1c(C(=O)C(=O)N2CCN(C(=O)c3ccccc3)CC2C)cnc2c1c(C)nn2C` (centres unmarked) [Example 12], the EC50 was in the range of 1000 to 5000 nM.

As for `O=C(C(=O)N1CCN(C(=O)c2ccccc2)CC1)c1csc2ccccc12` [Example 18, 1-(benzoyl)-4-[(benzothiophen-3-yl)-2-oxoacetyl]piperazine], the EC50 is 1000 to 5000 nM.

Regarding `COc1ccc(-c2nc(C)n[nH]2)c2[nH]cc(C(=O)N3CCN(C(=O)c4ccccc4)CC3)c12` [Example 26], the EC50 lay in the range of 1000 to 5000 nM.

`COc1ccc2cc(C(=O)C(C#N)N3CCN(C(=O)c4ccccc4)CC3C)[nH]c2c1` (centres unmarked) [Example 2]: the EC50 was under 1000 nM.

In the case of `COc1ccc(C#N)c2[nH]cc(C(=O)N3CCN(C(=O)c4ccccc4)CC3)c12` [Example 27], the EC50 is over 500 nM.

Regarding `COc1c(C(=O)C(=O)N2CCN(C(=O)c3ccccc3)CC2)cnc2c1c(C)nn2C` [Example 10], the EC50 is 1000 to 5000 nM.
